Experimental data reported in publication PMC5063058, “Cephalosporins inhibit human metallo β-lactamase fold DNA repair nucleases SNM1A and SNM1B/apollo” (Chemical Communications (Cambridge, England), 2016).

Tests used:
[1] = real-time fluorescence nuclease assay (fluorescein/BHQ1 20-nt ssDNA); type: biochemical, Homo sapiens; settings: read-out: IC50 SNM1A ^a /μM
Text: (§1) real-time fluorescence nuclease assay (fluorescein/BHQ1 20-nt ssDNA) on SNM1B

SNM1A [2] = target: T1, SNM1A (Homo sapiens, UniProt Q6PJP8); experiment: as above; type: biochemical
T1 construct: gene DCLRE1A; 5'-3' exonuclease with MBL and beta-CASP domains
T1 sequence (Q6PJP8 700-1040): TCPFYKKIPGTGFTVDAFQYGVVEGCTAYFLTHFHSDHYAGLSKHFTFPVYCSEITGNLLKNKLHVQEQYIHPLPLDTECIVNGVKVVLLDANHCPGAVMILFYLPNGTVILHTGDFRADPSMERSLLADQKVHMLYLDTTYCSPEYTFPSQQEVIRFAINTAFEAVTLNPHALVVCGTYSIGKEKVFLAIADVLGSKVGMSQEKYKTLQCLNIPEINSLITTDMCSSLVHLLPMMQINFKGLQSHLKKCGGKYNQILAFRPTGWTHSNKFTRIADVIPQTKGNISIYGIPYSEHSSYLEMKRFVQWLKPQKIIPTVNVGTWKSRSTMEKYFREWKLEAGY
Text: real-time fluorescence nuclease assay (fluorescein/BHQ1 20-nt ssDNA) on SNM1A

SNM1B = target: T2, SNM1B (Homo sapiens, UniProt Q9H816); experiment: as above; type: biochemical
T2 construct: gene DCLRE1B; 5'-3' exonuclease with MBL and beta-CASP domains
T2 sequence (Q9H816 1-335): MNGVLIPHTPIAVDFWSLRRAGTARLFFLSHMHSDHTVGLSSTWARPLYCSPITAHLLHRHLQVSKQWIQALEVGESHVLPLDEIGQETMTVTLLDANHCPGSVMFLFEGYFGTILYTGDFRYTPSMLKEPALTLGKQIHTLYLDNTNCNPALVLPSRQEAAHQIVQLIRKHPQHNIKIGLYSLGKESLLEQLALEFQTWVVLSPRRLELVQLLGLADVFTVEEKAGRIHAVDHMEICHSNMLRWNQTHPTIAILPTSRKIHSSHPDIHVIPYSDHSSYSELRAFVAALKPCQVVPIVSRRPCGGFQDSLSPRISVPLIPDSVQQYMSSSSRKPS
Text: as §1

SNM1A [3] = target: T1, SNM1A; experiment: quantitative 1H NMR binding assay

## CC(C)(O/N=C(\C(=O)N[C@@H]1C(=O)N2C(C(=O)[O-])=C(C[n+]3ccccc3)CS[C@H]12)c1csc(N)n1)C(=O)O [Ceftazidime]
[1]
  IC50: > 500 µM
SNM1A [2]
  IC50: > 500 µM

## CC(=O)OCC1=C(C(=O)O)N2C(=O)[C@@H](N)[C@H]2SC1 [compound 1, 7-ACA]
SNM1B
  IC50: 32 ± 10 µM
SNM1A [2]
  IC50: 7 ± 1 µM

## CC(=O)OCC1=C(C(=O)O)N2C(=O)[C@@H](NC(=O)CCC[C@@H](N)C(=O)O)[C@H]2SC1 [compound 2, Cephalosporin C]
SNM1B
  IC50: > 500 µM
SNM1A [2]
  IC50: 61 ± 27 µM

## CO/N=C(\C(=O)N[C@@H]1C(=O)N2C(C(=O)O)=C(COC(C)=O)CS[C@H]12)c1csc(N)n1 [compound 3, Cefotaxime]
SNM1B
  IC50: 129 ± 20 µM
SNM1A [2]
  IC50: 5 ± 2 µM

## CO/N=C(\C(=O)N[C@@H]1C(=O)N2C(C(=O)O)=C(CSc3nc(=O)c(=O)[nH]n3C)CS[C@H]12)c1csc(N)n1 [compound 4, Ceftriaxone]
SNM1B
  IC50: 40 ± 14 µM
SNM1A [2]
  IC50: 4 ± 2 µM
SNM1A [3]
  Kd: 19 ± 4 µM
